Patent US6559140B2 (Abbott Laboratories, priority 2000, dated 2003)

target: H3 receptor (Rattus norvegicus, UniProt Q9QYN8); assay: H3 receptor binding, (3H)-N-α-methylhistamine displacement in rat cortical membranes; conditions: male Sprague-Dawley rat brain cortical membranes, 30 minutes at 25° C., Cheng-Prusoff, geometric mean values of 2-10 separate experiments
Procedure: Briefly, male Sprague-Dawley rat brain cortices were homogenized (1 g tissue/10 mL buffer) in 50 mM Tris-HCl/5 mM EDTA containing protease inhibitor cocktail (Calbiochem) using a polytron set at 20,500 rpm. Homogenates were centrifuged for 20 minutes at 40,000×g. The supernatant was decanted, and pellets were weighed. The pellet was resuspended by polytron homogenization in 40 mL 50 mM Tris-HCl/5 mM EDTA with protease inhibitors and centrifuged for 20 minutes at 40,000×g. […] Test compounds were added to the incubation mixtures prior to initiating the incubation assay by addition of the membranes. Thioperamide (3 μM) was used to determine nonspecific binding. Binding incubations were conducted for 30 minutes at 25° C. and terminated by addition of 2 mL of ice cold 50 mM Tris-HCl (H 7.7) and filtration through 0.3% polyethylenimine-soaked Unifilter plates (Packard). These filters were washed 4 additional times with 2 mL of ice-cold 50 mM Tris-HCl and dried for 1 hour. Radioactivity was determined using liquid scintillation counting techniques. Results were analyzed by Hill transformation and Ki values were determined using the Cheng-Prusoff equation.

Chain of H3 receptor (Q9QYN8 1-397 isoform Q9QYN8-3): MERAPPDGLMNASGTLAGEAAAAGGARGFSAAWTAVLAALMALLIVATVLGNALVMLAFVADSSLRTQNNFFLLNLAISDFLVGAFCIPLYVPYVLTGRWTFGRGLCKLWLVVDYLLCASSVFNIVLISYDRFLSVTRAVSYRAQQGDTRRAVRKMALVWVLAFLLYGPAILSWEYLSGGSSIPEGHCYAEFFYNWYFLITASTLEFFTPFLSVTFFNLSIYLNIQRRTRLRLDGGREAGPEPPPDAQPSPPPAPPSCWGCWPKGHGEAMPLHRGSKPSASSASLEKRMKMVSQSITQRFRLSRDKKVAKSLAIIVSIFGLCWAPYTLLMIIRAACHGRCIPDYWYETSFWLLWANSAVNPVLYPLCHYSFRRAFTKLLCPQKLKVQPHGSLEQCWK

Compound | Ki [nM]
C[C@@H](NC(=O)c1ccc(Cl)c(Cl)c1)C(=O)N1CCN(CCCOc2ccc(-c3noc(CC4CCCC4)n3)c(F)c2)CC1 [Example 176, 3,4-dichloro-N-{(1R)-2-[4-(3-{4-[5-(cyclopentylmethyl)-1,2,4-oxadiazol-3-yl]-3-fluorophenoxy}propyl)-1-piperazinyl]-1-methyl-2-oxoethyl}benzamide] | 1.22
CC(C)C(=O)N[C@H](C)C(=O)N1CCCN(CCCOc2ccc(-c3noc(CC4CCCC4)n3)c(F)c2)CC1 [Example 177, N-{(1R)-2-[4-(3-{4-[5-(cyclopentylmethyl)-1,2,4-oxadiazol-3-yl]-3-fluorophenoxy}propyl)-1,4-diazepan-1-yl]-1-methyl-2-oxoethyl}-2-methylpropanamide] | 1.78
C[C@@H](NC(=O)c1ccc(Cl)cc1)C(=O)N1CCCN(CCCOc2ccc(-c3noc(CC4CCCC4)n3)c(F)c2)CC1 [Example 178, 4-chloro-N-{(1R)-2-[4-(3-{4-[5-(cyclopentylmethyl)-1,2,4-oxadiazol-3-yl]-3-fluorophenoxy}propyl)-1,4-diazepan-1-yl]-1-methyl-2-oxoethyl}benzamide] | 8.2
C[C@@H](NC(=O)c1ccc(C#N)cc1)C(=O)N1CCCN(CCCOc2ccc(-c3noc(CC4CCCC4)n3)c(F)c2)CC1 [Example 179, 4′-cyano-N-{(1R)-2-[4-(3-{4-[5-(cyclopentylmethyl)-1,2,4-oxadiazol-3-yl]-3-fluorophenoxy}propyl)-1,4-diazepan-1-yl]-1-methyl-2-oxoethyl}benzamide] | 1.5
C[C@@H](NC(=O)c1ccc(N(C)C)cc1)C(=O)N1CCN(CCCOc2ccc(-c3noc(CC4CCCC4)n3)c(F)c2)CC1 [Example 180, N-{(1R)-2-[4-(3-{4-[5-(cyclopentylmethyl)-1,2,4-oxadiazol-3-yl]-3-fluorophenoxy}propyl)-1-piperazinyl]-1-methyl-2-oxoethyl}-4-(dimethylamino)benzamide] | 2.37
C[C@@H](NC(=O)c1cccnc1)C(=O)N1CCN(CCCOc2ccc(-c3noc(CC4CCCC4)n3)c(F)c2)CC1 [Example 181, N-{(1R)-2-[4-(3-{4-[5-(cyclopentylmethyl)-1,2,4-oxadiazol-3-yl]-3-fluorophenoxy}propyl)-1-piperazinyl]-1-methyl-2-oxoethyl}nicotinamide] | 1.67
C[C@@H](NC(=O)c1ccccc1Cl)C(=O)N1CCN(CCCOc2ccc(-c3noc(CC4CCCC4)n3)c(F)c2)CC1 [Example 182, 2-chloro-N-{(1R)-2-[4-(3-{4-[5-(cyclopentylmethyl)-1,2,4-oxadiazol-3-yl]-3-fluorophenoxy}propyl)-1-piperazinyl]-1-methyl-2-oxoethyl}benzamide] | 2.78
C[C@@H](NC(=O)c1ccc2c(c1)OCO2)C(=O)N1CCN(CCCOc2ccc(-c3noc(CC4CCCC4)n3)c(F)c2)CC1 [Example 183] | 2.72
CC(C)Oc1ccc(C(=O)N[C@H](C)C(=O)N2CCN(CCCOc3ccc(-c4noc(CC5CCCC5)n4)c(F)c3)CC2)cc1 [Example 184, N-{(1R)-2-[4-(3-{4-[5-(cyclopentylmethyl)-1,2,4-oxadiazol-3-yl]-3-fluorophenoxy}propyl)-1-piperazinyl]-1-methyl-2-oxoethyl}-4-isopropoxybenzamide] | 10.5
COc1ccc(C(=O)N[C@H](C)C(=O)N2CCN(CCCOc3ccc(-c4noc(CC5CCCC5)n4)c(F)c3)CC2)cc1F [Example 185, N-{(1R)-2-[4-(3-{4-[5-(cyclopentylmethyl)-1,2,4-oxadiazol-3-yl]-3-fluorophenoxy}propyl)-1-piperazinyl]-1-methyl-2-oxoethyl}-3-fluoro-4-methoxybenzamide] | 3.28
C[C@@H](NC(=O)c1ccc(C(=O)O)cc1)C(=O)N1CCN(CCCOc2ccc(-c3noc(CC4CCCC4)n3)c(F)c2)CC1 [Example 186, 4-[({(1R)-2-[4-(3-{4-[5-(cyclopentylmethyl)-1,2,4-oxadiazol-3-yl]-3-fluorophenoxy}propyl)-1-piperazinyl]-1-methyl-2-oxoethyl}amino)carbonyl]benzoic acid] | 8.82
Cc1cccc(-c2nc(-c3ccc(OCCCN4CCN(C(=O)[C@@H](C)NC(=O)c5cccs5)CC4)cc3F)no2)c1 [Example 187, N-{(1R)-2-[4-(3-{3-fluoro-4-[5-(3-methylphenyl)-1,2,4-oxadiazol-3-yl]phenoxy}propyl)-1-piperazinyl]-1-methyl-2-oxoethyl}-2-thiophenecarboxamide] | 26.2
C[C@@H](NC(=O)c1cccs1)C(=O)N1CCN(CCCOc2ccc(-c3noc(-c4cccc(C#N)c4)n3)c(F)c2)CC1 [Example 188, N-{(1R)-2-[4-(3-{4-[5-(3-cyanophenyl)-1,2,4-oxadiazol-3-yl]-3-fluorophenoxy}propyl)-1-piperazinyl]-1-methyl-2-oxoethyl}-2-thiophenecarboxamide] | 4.23
C[C@@H](NC(=O)c1cccs1)C(=O)N1CCN(CCCOc2ccc(-c3noc(-c4cc(Cl)cc(Cl)c4)n3)c(F)c2)CC1 [Example 189, N-{(1R)-2-[4-(3-{4-[5-(3,5-dichlorophenyl)-1,2,4-oxadiazol-3-yl]-3-fluorophenoxy}propyl)-1-piperazinyl]-1-methyl-2-oxoethyl}-2-thiophenecarboxamide] | 51.3
C[C@@H](NC(=O)c1cccs1)C(=O)N1CCN(CCCOc2ccc(-c3noc(CCC(=O)N4CCCC4)n3)c(F)c2)CC1 [Example 190, N-((1R)-2-{4-[3-(3-fluoro-4-{5-[3-oxo-3-(1-pyrrolidinyl)propyl]-1,2,4-oxadiazol-3-yl}phenoxy)propyl]-1-piperazinyl}-1-methyl-2-oxoethyl)-2-thiophenecarboxamide] | 7.69
CCOC(=O)c1nc(-c2ccc(OCCCN3CCN(C(=O)[C@@H](C)NC(=O)c4cccs4)CC3)cc2F)no1 [Example 191, Ethyl 3-{2-fluoro-4-[3-(4-{(2R)-2-[(2-thienylcarbonyl)amino]propanoyl}-1-piperazinyl)propoxy]phenyl}-1,2,4-oxadiazole-5-carboxylate] | 15
Cc1ccccc1C(=O)N[C@H](C)C(=O)N1CCN(CCCOc2ccc(C(=O)C3CC3)cc2)CC1 [Example 192, N-[(1R)-2-(4-{3-[4-(cyclopropylcarbonyl)phenoxy]propyl}-1-piperazinyl)-1-methyl-2-oxoethyl]-2-methylbenzamide] | 1
COc1cccc(C(=O)N[C@H](C)C(=O)N2CCN(CCCOc3ccc(C(=O)C4CC4)cc3)CC2)c1 [Example 193, N-[(1R)-2-(4-{3-[4-(cyclopropylcarbonyl)phenoxy]propyl}-1-piperazinyl)-1-methyl-2-oxoethyl]-3-methoxybenzamide] | 1.11
C[C@@H](NC(=O)c1ccc(Br)cc1)C(=O)N1CCN(CCCOc2ccc(C(=O)C3CC3)cc2)CC1 [Example 194, 4-bromo-N-[(1R)-2-(4-{3-[4-(cyclopropylcarbonyl)phenoxy]propyl}-1-piperazinyl)-1-methyl-2-oxoethyl]benzamide] | 1.18
C[C@@H](NC(=O)c1ccc(Oc2ccccc2)cc1)C(=O)N1CCN(CCCOc2ccc(C(=O)C3CC3)cc2)CC1 [Example 195] | 1.37
Cc1cc(C)cc(C(=O)N[C@H](C)C(=O)N2CCN(CCCOc3ccc(C(=O)C4CC4)cc3)CC2)c1 [Example 196, N-[(1R)-2-(4-{3-[4-(cyclopropylcarbonyl)phenoxy]propyl}-1-piperazinyl)-1-methyl-2-oxoethyl]-3,5-dimethylbenzamide] | 2.08
COc1ccc(OC)c(C(=O)N[C@H](C)C(=O)N2CCN(CCCOc3ccc(C(=O)C4CC4)cc3)CC2)c1 [Example 197, N-[(1R)-2-(4-{3-[4-(cyclopropylcarbonyl)phenoxy]propyl}-1-piperazinyl)-1-methyl-2-oxoethyl]-2,5-dimethoxybenzamide] | 3.1
COc1ccc(-c2nc(-c3ccc(OCCCN4CCN(C(=O)[C@@H](C)NC(=O)c5cccs5)CC4)cc3F)no2)cc1 [Example 198, N-{(1R)-2-[4-(3-{3-fluoro-4-[5-(4-methoxyphenyl)-1,2,4-oxadiazol-3-yl]phenoxy}propyl)-1-piperazinyl]-1-methyl-2-oxoethyl}-2-thiophenecarboxamide] | 25.9
Tert-butyl (1R)-1-benzyl-2-(4-(3-(4-(cyclopropylcarbonyl)phenoxy)propyl)-1-piperazinyl)-2-oxoethylcarbamate [Example 79] | 4.78
